Source: patent publication US6632602B1, “Plant sugar sensors and uses thereof” (The General Hospital Corporation, priority 1996, dated 2003)

What was measured:
Arabidopsis seedlings [1] = experiment: Sugar sensitivity bioassay of light-grown seedlings on 6% glucose or 0.8 mM 2-dGlc plates; assay type: in vivo; settings: control plants, constant light; 6% glucose or low concentration (0.8 mM) 2-dGlc
From the text: To test the hypothesis that AtHXKs act as sugar sensors in intact plants, transgenic plant models were established by introducing sense and antisense genes to alter AtHXK levels. Wild-type (Bensheim) Arabidopsis plants were transformed with binary vectors carrying gene fusions with the CaMV35S promoter and sense AtHXK1 (sense-AtHXK1), sense AtHXK2 (sense-AtHXK2), antisense AtHXK1 (anti-AtHXK1), or antisense AtHXK2 (anti-AtHXK2) using a standard Agrobacterium-mediated root transformation protocol (Czako et al., Mol. Gen. Genet. 235, 33 (1992)). The presence of a transgene was determined by NPTII expression and resultant kanamycin resistance, and by DNA blot analysis. Several transgenic lines of the T3 generation homozygous for the sense or antisense transgenes were selected for further analyses.
Sugar sensitivity of transgenic plants was examined by performing bioassays using 6% glucose or 0.8 mM 2-deoxyglucose (2-dGlc), a nonmetabolizable glucose analog. […]
The scored phenotypes shown in Table 1 were determined based on the examination of light-grown, 7-day-old seedlings which were germinated on 1/2 MS plates containing either 6% glucose or 0.8 mM of 2-dGlc. Sugar insensitive (Ins), hypersensitive (Hyp), and ambiguous (A) phenotypes were scored and tabulated.

Arabidopsis seedlings [2] = experiment: Osmotic control experiments on 6% mannitol or 6% 3-MeGlc plates; assay type: in vivo; settings: plated on 6% of the substance
From the text: To rule out the possibility that the difference in sugar sensing between transgenic and control plants was due to an osmotic effect, mannitol and 3-O-methylglucose (3-MeGlc) were used in control experiments.

[3] = tested on: yeast hxk1/hxk2 double mutant (DBY2219); experiment: Functional complementation of yeast hxk1/hxk2 double mutant on fructose; assay type: cell-based, Saccharomyces cerevisiae; settings: for Complementation of yeast double mutant, growth on fructose as sole carbon source: cDNA transformed into DBY2219
From the text: To elucidate the role of HXK as a sugar sensor, the Arabidopsis HXK genes were cloned by functional complementation using a yeast Saccharomyces cerevisiae hxk1/hxk2 double mutant (designated DBY2219), a strain which lacked HXK activity (Ma and Botstein, Mol. Cell. Biol. 6, 4046 (1986)). Using this approach, we identified two cDNAs, designated AtHXK1 (FIG. 1F; SEQ ID NO: 3, GenBank accession no. U28214) and AtHXK2 (FIG. 1G; SEQ ID NO: 4, GenBank accession no. U28215). These cDNAs, which were 2.0 and 1.9 kb in length respectively, were both found reproducibly to complement the yeast double mutant and to allow its growth on a selection plate containing fructose as the sole carbon source. […] In contrast, mutants transformed with the plasmid vector pFL61 alone were incapable of growth on the same selection media (FIG. 1A) (Minet et al., Plant J. 2, 417 (1992)).

[4] = tested on: yeast hxk1/hxk2 double mutant (DBY2219); experiment: Yeast glucose repression assay on 2-dGlc/raffinose plate; assay type: cell-based, Saccharomyces cerevisiae; settings: 2% raffinose, 2-deoxyglucose (0.02%)
From the text: To confirm this hypothesis, we sought to increase the expression of a heterologous HXK that would provide excess catalytic activity for sugar metabolism, but no regulatory function. The yeast HXK2 (YHXK2) has been proposed to have catalytic and regulatory functions, and appeared to be a good candidate for this experiment (Entian, Mol. Gen. Genet. 178, 633 (1980); Entian and Frshlich, J. Bacteriol. 158, 29 (1984); Entian et al., Mol. Cell. Biol. 5, 3035 (1985)). We first determined whether the putative regulatory functions of the YHXK2 and AtHXK were interchangeable by examining the effect of increasing the expression of AtHXK on glucose repression in a yeast hxk1/hxk2 double mutant (DBY2219). The assay was based on the YHXK2-mediated growth inhibition (i.e., glucose repression) of wild-type yeast cells on a 2-dGlc/raffinose plate. The glucose repression assay was performed using a YP plate with 2% raffinose as the carbon source in the presence of 2-deoxyglucose (0.02%) as described by Ma et al. (Mol. Cell. Biol. 9, 5643 (1989)). The glucose analog, 2-dGlc, mimics glucose by inducing strong repression of the invertase gene (SUC2), but is itself unavailable for use as a carbon source.

Row | Compound | Difference between control and transgenic plants (Arabidopsis seedlings [2]) | Complementation of yeast double mutant, growth on fructose as sole carbon source [3] | Glucose repression in hxk1/hxk2 strain [4] | further results
1 | O=CC[C@@H](O)[C@H](O)[C@H](O)CO [2-dGlc, 2-deoxyglucose] | – | – | – | Effect of sugar on control (wild-type) seedling development (Arabidopsis seedlings [1]): greening of cotyledons was found to be inhibited
2 | CO[C@@H]([C@H](O)[C@H](O)CO)[C@@H](O)C=O [3-MeGlc, 3-O-methylglucose] | No apparent difference | – | – | –
3 | OC[C@@H](O)[C@@H](O)[C@H](O)[C@H](O)CO [mannitol] | No apparent difference | – | – | –
4 | AtHXK1: Arabidopsis hexokinase cDNA, SEQ ID NO: 3, GenBank accession no. U28214 | – | complement | did not restore glucose repression | Catalytic activity in yeast transformation experiment ([3]; data not shown): higher catalytic activity than AtHXK2
5 | AtHXK2: Arabidopsis hexokinase cDNA, SEQ ID NO: 4, GenBank accession no. U28215 | – | complement | did not restore glucose repression | –
